{
  "source": "patent US20230413819A1",
  "about": "“METHODS FOR CONTROLLING FLEA AND TICK INFESTATIONS IN A MAMMAL” (In the Bowl Animal Health, Inc., priority 2021, published 2023)",
  "key": {"[1]": {"assay": "Average plasma concentration of mivorilaner, medicated daily feed (Example 9)", "type": "in vivo, dogs", "experimental": "Each dog in a treatment group (test groups 2-4) is to receive a medicated daily feed from study days 0-49. The medicated daily feed is to be offered to the dogs for 1 hour on each of days 0-49 according to test groups listed in TABLE 11."}, "Ctenocephalides felis": {"system": "Ctenocephalides felis", "assay": "Efficacy of isoxazoline (mivorilaner) per os to dogs against Ctenocephalides felis (Example 10)", "type": "in vivo", "conditions": "0.75 mg/kg/day oral", "source_text": "Methods: A pool of 14 dogs are to be preliminarily infested with ˜100 unfed adult C. felis in order to identify dogs that can suitably sustain a reliable infestation rate, defined as approximately 50% fleas being live at the end of a 48-hour period. The 12 dogs with the highest live flea counts are to be selected for inclusion in the study. The dogs are to be divided into a control group and a treatment group.\nThe dogs are to be housed individually during the study period and are to be fed a commercial dry dog food ration with ad libitum access to water.\n(§1) Each dog in the treatment group is to receive by mouth a liquid formulation of isoxazoline. The dosage of 0.75 mg/kg is to be administered to the dogs on each of days 0-29.\nDogs in the control group are not to receive isoxazoline or any other flea control treatment. Each dog in the treatment group is to be offered its daily ration (dry food) and the individual doses of liquid formulation are to be administered after the individual dog has eaten at least 25% of its total daily ration. After receiving the dose of isoxazoline, the dogs are to be allowed to continue eating. This mimics incorporating the isoxazoline in feed. […]\nResults: referring now to FIG. 16, the arithmetic mean efficacy in reduction of live adult flea counts is shown. The Percent Efficacy is calculated according to the formula: […]"}, "[2]": {"assay": "Plasma concentration of mivorilaner, 0.75 mg/kg daily oral (Examples 4 and 10)", "type": "in vivo, dogs", "experimental": "as §1\nDogs in the control group are not to receive isoxazoline or any other tick control treatment. Each dog in the treatment group is to be offered its daily ration (dry food) and the individual doses of liquid formulation are to be administered after the individual dog has eaten at least 25% of its total daily ration. After receiving the dose of isoxazoline, the dogs are to be allowed to continue eating. This mimics incorporating the isoxazoline in feed. Each dog in the treatment group and the control group is to be experimentally infested with 50 adult ticks on test days 5, 12, 19, 28 and 35. Comb counts for live and moribund attached ticks are to be conducted on days 7, 14, 21, 30 and 37.\nDogs in the control group are not to receive isoxazoline or any other flea control treatment. Each dog in the treatment group is to be offered its daily ration (dry food) and the individual doses of liquid formulation are to be administered after the individual dog has eaten at least 25% of its total daily ration. After receiving the dose of isoxazoline, the dogs are to be allowed to continue eating. This mimics incorporating the isoxazoline in feed. Each dog in the treatment group and the control group is to be experimentally infested with 100 unfed adult fleas on test days 2, 5, 12, 20 and 35. Comb counts for live adult fleas are to be conducted on days 4, 7, 14, 21 and 37."}, "[3]": {"assay": "Average plasma concentration of mivorilaner, various daily oral doses (Examples 5 and 11)", "type": "in vivo, dogs", "conditions": "dog, Group 2, 0.125 mg/kg/day oral, fed"}},
  "note": "Several values for one entry are separate records, joined by “and”; a condition that tells them apart may be missing. Identical values can stand only once.",
  "data": [
    {"smiles": "O=C(CNC(=O)c1sc(C2=NO[C@@](c3cc(Cl)c(F)c(Cl)c3)(C(F)(F)F)C2)c2c1CCC2)NCC(F)F", "note": "[mivorilaner, 3-[(5S)-5-(3,5-dichloro-4-fluorophenyl)-5-(trifluoromethyl)-4,5-dihydroisoxazol-3-yl]-N-[2-[(2,2-difluoroethyl)amino]-2-oxoethyl]-5,6-dihydro-4H-cyclopenta[c]thiophene-1-carboxamide]", "values": [
      {"measurement": "average plasma concentration of isoxazoline (mivorilaner)", "setting": "[1]; Group 2, 106 mg/kg feed (anticipated 1 mg/kg daily), 1 hr", "value": 49.98},
      {"measurement": "average plasma concentration of isoxazoline (mivorilaner)", "setting": "[1]; Group 2, 106 mg/kg feed (anticipated 1 mg/kg daily), 3 hr", "value": 292.00},
      {"measurement": "average plasma concentration of isoxazoline (mivorilaner)", "setting": "[1]; Group 2, 106 mg/kg feed (anticipated 1 mg/kg daily), 6 hr", "value": 539.00},
      {"measurement": "average plasma concentration of isoxazoline (mivorilaner)", "setting": "[1]; Group 2, 106 mg/kg feed (anticipated 1 mg/kg daily), 10 hr", "value": 505.40},
      {"measurement": "average plasma concentration of isoxazoline (mivorilaner)", "setting": "[1]; Group 2, 106 mg/kg feed (anticipated 1 mg/kg daily), 24 hr", "value": 458.60},
      {"measurement": "average plasma concentration of isoxazoline (mivorilaner)", "setting": "[1]; Group 2, 106 mg/kg feed (anticipated 1 mg/kg daily), 48 hr", "value": 771.83},
      {"measurement": "average plasma concentration of isoxazoline (mivorilaner)", "setting": "[1]; Group 2, 106 mg/kg feed (anticipated 1 mg/kg daily), 96 hr", "value": 1570.50},
      {"measurement": "average plasma concentration of isoxazoline (mivorilaner)", "setting": "[1]; Group 2, 106 mg/kg feed (anticipated 1 mg/kg daily), 168 hr", "value": 2156.67},
      {"measurement": "average plasma concentration of isoxazoline (mivorilaner)", "setting": "[1]; Group 2, 106 mg/kg feed (anticipated 1 mg/kg daily), 240 hr", "value": 3003.33},
      {"measurement": "average plasma concentration of isoxazoline (mivorilaner)", "setting": "[1]; Group 2, 106 mg/kg feed (anticipated 1 mg/kg daily), 336 hr", "value": 3290.00},
      {"measurement": "average plasma concentration of isoxazoline (mivorilaner)", "setting": "[1]; Group 3, 106 mg/kg feed (anticipated 1 mg/kg daily), 1 hr", "value": 40.41},
      {"measurement": "average plasma concentration of isoxazoline (mivorilaner)", "setting": "[1]; Group 3, 106 mg/kg feed (anticipated 1 mg/kg daily), 3 hr", "value": 264.83},
      {"measurement": "average plasma concentration of isoxazoline (mivorilaner)", "setting": "[1]; Group 3, 106 mg/kg feed (anticipated 1 mg/kg daily), 6 hr", "value": 467.50},
      {"measurement": "average plasma concentration of isoxazoline (mivorilaner)", "setting": "[1]; Group 3, 106 mg/kg feed (anticipated 1 mg/kg daily), 10 hr", "value": 419.17},
      {"measurement": "average plasma concentration of isoxazoline (mivorilaner)", "setting": "[1]; Group 3, 106 mg/kg feed (anticipated 1 mg/kg daily), 24 hr", "value": 435.17},
      {"measurement": "average plasma concentration of isoxazoline (mivorilaner)", "setting": "[1]; Group 3, 106 mg/kg feed (anticipated 1 mg/kg daily), 48 hr", "value": 781.83},
      {"measurement": "average plasma concentration of isoxazoline (mivorilaner)", "setting": "[1]; Group 3, 106 mg/kg feed (anticipated 1 mg/kg daily), 96 hr", "value": 1596.67},
      {"measurement": "average plasma concentration of isoxazoline (mivorilaner)", "setting": "[1]; Group 3, 106 mg/kg feed (anticipated 1 mg/kg daily), 168 hr", "value": 2406.67},
      {"measurement": "average plasma concentration of isoxazoline (mivorilaner)", "setting": "[1]; Group 3, 106 mg/kg feed (anticipated 1 mg/kg daily), 240 hr", "value": 3026.67},
      {"measurement": "average plasma concentration of isoxazoline (mivorilaner)", "setting": "[1]; Group 3, 106 mg/kg feed (anticipated 1 mg/kg daily), 336 hr", "value": 3516.67},
      {"measurement": "average plasma concentration of isoxazoline (mivorilaner)", "setting": "[1]; Group 4, 318 mg/kg feed (anticipated 3 mg/kg daily), 1 hr", "value": 143.75},
      {"measurement": "average plasma concentration of isoxazoline (mivorilaner)", "setting": "[1]; Group 4, 318 mg/kg feed (anticipated 3 mg/kg daily), 3 hr", "value": 846.50},
      {"measurement": "average plasma concentration of isoxazoline (mivorilaner)", "setting": "[1]; Group 4, 318 mg/kg feed (anticipated 3 mg/kg daily), 6 hr", "value": 1265.67},
      {"measurement": "average plasma concentration of isoxazoline (mivorilaner)", "setting": "[1]; Group 4, 318 mg/kg feed (anticipated 3 mg/kg daily), 10 hr", "value": 1198.17},
      {"measurement": "average plasma concentration of isoxazoline (mivorilaner)", "setting": "[1]; Group 4, 318 mg/kg feed (anticipated 3 mg/kg daily), 24 hr", "value": 1021.17},
      {"measurement": "average plasma concentration of isoxazoline (mivorilaner)", "setting": "[1]; Group 4, 318 mg/kg feed (anticipated 3 mg/kg daily), 48 hr", "value": 2011.67},
      {"measurement": "average plasma concentration of isoxazoline (mivorilaner)", "setting": "[1]; Group 4, 318 mg/kg feed (anticipated 3 mg/kg daily), 96 hr", "value": 3928.33},
      {"measurement": "average plasma concentration of isoxazoline (mivorilaner)", "setting": "[1]; Group 4, 318 mg/kg feed (anticipated 3 mg/kg daily), 168 hr", "value": 6461.67},
      {"measurement": "average plasma concentration of isoxazoline (mivorilaner)", "setting": "[1]; Group 4, 318 mg/kg feed (anticipated 3 mg/kg daily), 240 hr", "value": 8696.67},
      {"measurement": "average plasma concentration of isoxazoline (mivorilaner)", "setting": "[1]; Group 4, 318 mg/kg feed (anticipated 3 mg/kg daily), 336 hr", "value": 11600.00},
      {"measurement": "day after initial administration by which the treatment is effective (reduction of live adult flea counts)", "setting": "Ctenocephalides felis", "value": "≤ 4", "unit": "days"},
      {"measurement": "Mivorilaner Concentration, individual canines", "setting": "[2]; 0.75 mg/kg/day oral days 0-29, Day 3, 0.75 mg/kg/day", "value": "579 ng/mL and 660 ng/mL and 800 ng/mL and 798 ng/mL and 556 ng/mL and 648 ng/mL"},
      {"measurement": "Mivorilaner Concentration, individual canines", "setting": "[2]; 0.75 mg/kg/day oral days 0-29, Day 7, 0.75 mg/kg/day", "value": "994 ng/mL and 1470 ng/mL and 1620 ng/mL and 1660 ng/mL and 1330 ng/mL"},
      {"measurement": "Mivorilaner Concentration, individual canines", "setting": "[2]; 0.75 mg/kg/day oral days 0-29, Day 14, 0.75 mg/kg/day", "value": "1560 ng/mL and 2120 ng/mL and 2370 ng/mL and 2060 ng/mL and 1990 ng/mL and 2530 ng/mL"},
      {"measurement": "Mivorilaner Concentration, individual canines", "setting": "[2]; 0.75 mg/kg/day oral days 0-29, Day 21, 0.75 mg/kg/day", "value": "2450 ng/mL and 2720 ng/mL and 2950 ng/mL and 2660 ng/mL and 2750 ng/mL and 2820 ng/mL"},
      {"measurement": "Mivorilaner Concentration, individual canines", "setting": "[2]; 0.75 mg/kg/day oral days 0-29, Day 30, 0.75 mg/kg/day", "value": "2320 ng/mL and 2600 ng/mL and 2790 ng/mL and 2570 ng/mL and 2890 ng/mL"},
      {"measurement": "Mivorilaner Concentration, individual canines", "setting": "[2]; 0.75 mg/kg/day oral days 0-29, Day 37, 0.75 mg/kg/day", "value": "1880 ng/mL and 2010 ng/mL and 1980 ng/mL and 1750 ng/mL and 2070 ng/mL and 2410 ng/mL"},
      {"measurement": "Mivorilaner Concentration, individual canines", "setting": "[2]; 0.75 mg/kg/day oral days 0-29, Day −1 (before first dose)", "value": "BLQ"},
      {"measurement": "concentration at 30 day", "setting": "[2]; dog, po, 0.75 mg/kg/day, 0.75 mg/kg/day oral days 0-29, Day 30, read-out: Mivorilaner Concentration, individual canines", "value": 2890, "unit": "ng/mL"},
      {"measurement": "concentration at 0 h", "setting": "[3]; 0 h after initial dose", "value": 0, "unit": "ng/mL"},
      {"measurement": "concentration at 72 h", "setting": "[3]; 72 h after initial dose", "value": 136, "unit": "ng/mL"},
      {"measurement": "concentration at 120 h", "setting": "[3]; 120 h after initial dose", "value": 213, "unit": "ng/mL"},
      {"measurement": "concentration at 168 h", "setting": "[3]; 168 h after initial dose", "value": 244, "unit": "ng/mL"},
      {"measurement": "concentration at 336 h", "setting": "[3]; 336 h after initial dose", "value": 384, "unit": "ng/mL"},
      {"measurement": "concentration at 504 h", "setting": "[3]; 504 h after initial dose", "value": 404, "unit": "ng/mL"},
      {"measurement": "concentration at 720 h", "setting": "[3]; 720 h after initial dose", "value": 420, "unit": "ng/mL"},
      {"measurement": "concentration at 888 h", "setting": "[3]; 888 h after initial dose", "value": 448, "unit": "ng/mL"}
    ]}
  ]
}
